# Test results: PMC3628851, “Combined Approaches for Drug Design Points the Way to Novel Proline Racemase Inhibitor Candidates to Fight Chagas’ Disease” (PLoS ONE, 2013)
# Where two headings read alike, the source gives them in different places.
# How the values were obtained:
# TcPRAC [1] = biological target: T1, TcPRAC (Trypanosoma cruzi, UniProt Q4DA80); assay: Kinetics of D-proline formation with time / enzyme inactivation (polarimetry); assay type: biochemical; settings: for mode of TcPRAC inhibition: pre-incubation 5 or 10 min, 15 fold dilution, 300 mM L-proline
# T1 construct: His tag (inferred from nickel IMAC purification); made in house; host or cells: E. coli BL21 (DE3)
# T1 sequence (Q4DA80 32-423): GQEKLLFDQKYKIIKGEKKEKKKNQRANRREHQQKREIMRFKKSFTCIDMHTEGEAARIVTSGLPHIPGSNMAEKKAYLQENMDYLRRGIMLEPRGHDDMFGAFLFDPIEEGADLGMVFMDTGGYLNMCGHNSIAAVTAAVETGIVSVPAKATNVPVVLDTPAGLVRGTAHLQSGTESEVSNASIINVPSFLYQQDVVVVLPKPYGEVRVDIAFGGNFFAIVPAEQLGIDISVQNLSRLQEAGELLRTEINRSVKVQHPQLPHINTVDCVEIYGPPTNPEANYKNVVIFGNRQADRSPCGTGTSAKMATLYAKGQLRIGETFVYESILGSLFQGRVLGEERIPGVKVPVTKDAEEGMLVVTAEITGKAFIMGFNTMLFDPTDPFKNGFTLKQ
# Protocol: Kinetic reaction assays using fixed amounts of dimeric PRAC (22 µg –0.24 µM final), 40 mM substrate and 10 µM of the identified inhibitors were performed to characterize their effect on enzymatic activity (Figure 5). […] To further characterize the mode of action of this two molecules, the enzyme was pre-incubated (concentration 22 µg − 3,6 µM) with different concentration of inhibitor, for 5 or 10 min to determine inhibition dependence to inhibitor concentration and pre-incubation time. Then, the reaction mixture was diluted 15 fold and residual activity was determined in an excess of substrate (300 mM of L- proline).
# Figure 5 Kinetics of D-proline formation with time in the presence or absence of TcPRAC inhibitors. (A) Concentrations of D-proline formed were determined by polarimetry in reaction assays containing 0.15 µM of TcPRAC and 40 mM L proline (see Material and Methods).
# TcPRAC [2] = biological target: T1, TcPRAC; assay: DAAOx test of D-proline formed by TcPRAC; assay type: biochemical; settings: for D-Proline formed: inhibitor 10 µM, without inhibitor 5.0 µM
# Protocol: (§1) Optimum Proline racemization conditions for TcPRAC were determined using 10–300 mM L-Proline in 0.2 M NaOAc over a range of pH values, as described and L- to D- proline conversion took place in 1.5 mL reaction. Concentrations of D-proline formed were determined by optical rotation of the solution at 365 nm in a 10 cm optical path cell, thermostated at 37°C, using a polarimeter (Perkin Elmer 241 MC). Assays were also performed into microtiter plates (100 µL), as follows: dilutions of L- Proline (40 mM to 2.5 mM) in 0.2 M sodium acetate pH 6.0 and 0.25 mM TcPRAC were loaded into microtiter plate wells with 0–20 µM PYC or similar concentrations of potential inhibitors. Controls omitted TcPRAC and/or PYC. The microtiter plates were incubated for 30 minutes at 37°C. The enzyme was inactivated by heating in a microwave oven for 15 s at 900 Watts and shifting the pH to 8.3 by adding 6.8 µL of 0.235 M sodium pyrophosphate. The presence of D-Proline was tested in 50 µL from each well using the D-amino oxidase - Horse Radish Peroxidase/OPD combined test. Interference caused by the possible reactivity of amino acid L-forms with DAAOx was taken into account by using standards consisting of serial dilutions of an equimolar mixture of D- and L-proline ranging from 0 to 10 mM (10 mM total). For instance, DAAOx reacts with L-Proline 300 times slower than with D-Proline. Optical densities, OD490 nm – OD650 nm were recorded on a microtiter plate reader (Molecular Devices), and the signals from the blank control wells were deducted.
# (§2) Only two novel TcPRAC inhibitors, both provided by the CN, were identified among these (Figure 4B).
# non infected Vero cells = assay: Viability of non infected Vero cells; assay type: cell-based, green monkey; settings: 3, 10 and 30 µM
# Protocol: Cell culture-derived trypomastigotes from T. cruzi CL Brener (clone F11-F5) were isolated from the supernatant of bulk cultures of green monkey Vero kidney cells previously infected with bloodstream trypomastigotes. Known numbers of parasites, adherent infected cells and uninfected cell controls were lysed with 0.1 mL of 0.05% Tween 20 solution in sterile distilled water and the lysates were frozen. Vero cells were seeded in LabTek slides (5×10^4 cells/well) in RPMI 1640 medium/5% FCS and kept at 37°C, 5% CO2. […] The number of infected host cells was recorded along with the number of parasites per infected cell in at least 400 host cells, in duplicate experiments. Results were expressed as the endocytic index (EI) resulting from the product of the percentage of infected cells and the mean number of parasites per infected cell. […]
# To verify the potential of these new PRAC inhibitors as lead compounds in drug design strategies, we compared their effects on cultures of host Vero cells infected or not with T. cruzi, with that of PYC. […] The degree of infection was determined over 48 hours by capture ELISA. […]
# TcPRAC [3] = biological target: T1, TcPRAC; assay: Inhibition of TcPRAC proline racemization measured by polarimetry; assay type: biochemical
# Protocol: as §1, §2
# T. cruzi [4] = assay: Vero cell infection by T. cruzi, total parasite numbers/culture by capture ELISA; assay type: cell-based, Trypanosoma cruzi
# Protocol: (§3) Cell culture-derived trypomastigotes from T. cruzi CL Brener (clone F11-F5) were isolated from the supernatant of bulk cultures of green monkey Vero kidney cells previously infected with bloodstream trypomastigotes. Known numbers of parasites, adherent infected cells and uninfected cell controls were lysed with 0.1 mL of 0.05% Tween 20 solution in sterile distilled water and the lysates were frozen. Vero cells were seeded in LabTek slides (5×10^4 cells/well) in RPMI 1640 medium/5% FCS and kept at 37°C, 5% CO2. […] To test the effect of the inhibitors on the parasite intracellular cycle, cultures were infected at 37°C for 17 hours without inhibitors, washed three times to eliminate extracellular parasites then incubated for up to 48 hours with fresh medium containing different dilutions of the compounds. All cultures were then washed with PBS, fixed and stained with Giemsa. The number of infected host cells was recorded along with the number of parasites per infected cell in at least 400 host cells, in duplicate experiments. Results were expressed as the endocytic index (EI) resulting from the product of the percentage of infected cells and the mean number of parasites per infected cell. Control cultures were incubated in medium alone or with equal DMSO concentrations.
# Flat-bottomed microtiter plates (Nunc, Denmark) were coated overnight at 4°C with rabbit anti-T. cruzi polyclonal antibodies and further blocked for 4 h at room temperature (RT) with 1% BSA, 0.05% Tween 20 in PBS. After washings, lysate samples from infected or control Vero cultures, or from T. cruzi, were then added and incubated at 4°C for 18 h. Plates were washed with PBS-Tween and incubated for 2 h at RT with polyclonal mouse anti-T. cruzi chronic serum, washed again and incubated for 1 h at RT with HRP-secondary antibodies. […] Optical densities were determined in a spectrophotometer at 450 nm and 650 nm, and analyzed by Softmax Pro software.
# (§4) To verify the potential of these new PRAC inhibitors as lead compounds in drug design strategies, we compared their effects on cultures of host Vero cells infected or not with T. cruzi, with that of PYC. […] To determine whether the treatment of these cultures with the new compounds would indeed affect intracellular TcPRAC and as such interfere with parasite intracellular fate cells were then washed after parasite uptake and the same ligand concentrations as above (10 µM − 30 µM) were added to the cultures in fresh medium. The degree of infection was determined over 48 hours by capture ELISA. As expected, the number of parasites per well decreased in a dose-dependent manner (Figure 7). In vitro and in vivo experiments using mutant parasites that carry the luciferase gene are now in progress to support those data.
# Total parasite numbers/culture were estimated by capture ELISA.
# Solubility (qualitative) = assay type: physicochemical; settings: for Solubility: solvent in which the compound is soluble, qualitative
# TcPRAC [5] = biological target: T1, TcPRAC; assay: TcPRAC inhibition by PYC derivatives (polarimetry and DAAO methodologies); assay type: biochemical
# Protocol: Recombinant Trypanosoma cruzi proline racemase (EC 5.1.1.4) was produced in E. Coli BL21 (DE3) (Invitrogen) and purified by immobilized metal affinity chromatography on nickel columns, as previously described.
# as §1
# T. cruzi [6] = assay: Vero cell infection by T. cruzi trypomastigotes, endocytic index (Giemsa count); assay type: cell-based, Trypanosoma cruzi; settings: for Endocytic index (EI): added with parasites, 17 h, Vero cells
# Protocol: as §3, with “cultures were infected at 37°C for 17 hours without inhibitors, washed three times to eliminate extracellular parasites then incubated for up to 48 hours with fresh medium containing” left out
# as §4
# TcPRAC [7] = biological target: T1, TcPRAC; settings: cited from earlier work
# [8] = 10 µM inhibitor, 40 mM substrate, 0.24 µM PRAC
# [9] = read-out: Racemization Inhibition
# [10] = classical Michaelian approaches
structure (smiles),measurement,setting,value
"O=C(O)/C=C/C(=O)CBr [Br-OxoPA, (E)-5-bromo-4-oxopent-2-enoic acid]",time at which plateau of enzyme inactivation is reached,TcPRAC [1]; [8],250 s
same,mode of TcPRAC inhibition,TcPRAC [1],irreversible
same,inhibition of conversion of L- into D-proline relative to PYC,"TcPRAC [2]; equivalent concentrations, DAAOx test",more than 5 times
same,D-Proline formed,TcPRAC [2],<0.3 µM
same,viability of non infected Vero cells,non infected Vero cells,neither OxoPA nor Br-OxoPA considerably affected the viability
same,IC50,TcPRAC [3],2.5 µM
same,inhibition at 2.5 µM,TcPRAC [3]; [9],50%
same,inhibition at 10 µM,TcPRAC [3]; [9],81.3%
same,"percentage in Figure 7 (effect on total parasite numbers/culture, capture ELISA)",T. cruzi [4]; 5 µM,24%
same,"percentage in Figure 7 (effect on total parasite numbers/culture, capture ELISA)",T. cruzi [4]; 10 µM,34%
same,"percentage in Figure 7 (effect on total parasite numbers/culture, capture ELISA)",T. cruzi [4]; 30 µM,39%
same,solubility in water,Solubility (qualitative),soluble
same,more potent than PYC in inhibiting TcPRAC,TcPRAC [5],4 fold
same,lower dose than PYC necessary to obtain the same endocytic index,T. cruzi [6]; 1000 µM PYC equivalent to 10 µM OxoPA or 30 µM Br-OxoPA,30 fold
same,Endocytic index (EI),T. cruzi [6]; inhibitor 3 µM,78
same,Endocytic index (EI),T. cruzi [6]; inhibitor 10 µM,42
same,Endocytic index (EI),T. cruzi [6]; inhibitor 30 µM,29
"O=C(O)c1n[nH]cc1Br [Br-PZC, 4-bromo-1H-pyrazole-3-carboxylic acid]",Solubility,Solubility (qualitative),Water
same,Ki,TcPRAC [5]; [10],1000 µM
same,Ki,TcPRAC [5]; values in text,~1000 µM
"O=C(O)c1n[nH]cc1Cl [Cl-PZC, 4-chloro-1H-pyrazole-3-carboxylic acid]",Solubility,Solubility (qualitative),Water
same,Ki,TcPRAC [5]; [10],300 µM
same,Ki,TcPRAC [5]; values in text,~300 µM
"CCc1c[nH]nc1C(=O)O [Et-PZC, 4-Ethyl-pyrazole-3-carboxylic acid]",Solubility,Solubility (qualitative),Water
same,Ki,TcPRAC [5]; [10],> 2000 µM
"Cc1[nH]nc(C(=O)O)c1Cl [M-Cl-PZC, 4-chloro-5-methyl-1H-pyrazole-3-carboxylic acid]",Solubility,Solubility (qualitative),Ethanol
same,Ki,TcPRAC [5]; [10],> 2000 µM
"CC(=O)/C=C/C(=O)O [OxoPA, (E)-4-oxopent-2-enoic acid]",time at which plateau of enzyme inactivation is reached,TcPRAC [1]; [8],350 s
same,mode of TcPRAC inhibition,TcPRAC [1],irreversible
same,D-Proline formed,TcPRAC [2],<0.3 µM
same,viability of non infected Vero cells,non infected Vero cells,neither OxoPA nor Br-OxoPA considerably affected the viability
same,IC50,TcPRAC [3],3 µM
same,inhibition at 3 µM,TcPRAC [3]; [9],50%
same,"percentage in Figure 7 (effect on total parasite numbers/culture, capture ELISA)",T. cruzi [4]; 5 µM,9%
same,"percentage in Figure 7 (effect on total parasite numbers/culture, capture ELISA)",T. cruzi [4]; 10 µM,14%
same,"percentage in Figure 7 (effect on total parasite numbers/culture, capture ELISA)",T. cruzi [4]; 30 µM,15%
same,more potent than PYC in inhibiting TcPRAC,TcPRAC [5],2 fold
"O=C(O)c1ccc[nH]1 [PYC, 2-pyrrolecarboxylic acid, reference compound]","racemization speed of L-proline, % of original speed",TcPRAC [1]; [8],~37%
same,D-Proline formed,TcPRAC [2],2.4 µM (IC50)
same,IC50,TcPRAC [3],10 µM
same,inhibition at 10 µM,TcPRAC [3]; [9],56.9%
same,"percentage in Figure 7 (effect on total parasite numbers/culture, capture ELISA)",T. cruzi [4]; 10 µM,4%
same,"percentage in Figure 7 (effect on total parasite numbers/culture, capture ELISA)",T. cruzi [4]; 100 µM,2%
same,"percentage in Figure 7 (effect on total parasite numbers/culture, capture ELISA)",T. cruzi [4]; 1 mM,0%
same,solubility in water,Solubility (qualitative),water-insoluble
same,Solubility,Solubility (qualitative),Ethanol
same,Ki,TcPRAC [5]; [10],6 to 10 µM
same,mode of TcPRAC inhibition,TcPRAC [7],classical competitive and reversible
same,Endocytic index (EI),T. cruzi [6]; inhibitor 10 µM,44
same,Endocytic index (EI),T. cruzi [6]; inhibitor 100 µM,30
same,Endocytic index (EI),T. cruzi [6]; inhibitor 1000 µM,25
"O=C(O)c1cc[nH]n1 [PZC, 1H-pyrazole-3-carboxylic acid]",Solubility,Solubility (qualitative),Water
same,Ki,TcPRAC [5]; [10],> 2000 µM
